The target of one data set is T1, HER2 INS YVMA (Homo sapiens, UniProt P04626, INS775YVMA).
T1 construct: purchased DPF
The data set is described as follows: Lance Kinase Activity Assay, HER2 INS YVMA (Her2 Exon 20 INSYVMA Lance). Type of data set: biochemical. The note with it: biochemical Lance assay. Summed up:
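IC50 was fitted to sigmoidal curves of TR-FRET signal (665 and 615 nm emission after 340 nm excitation) from an Eu anti-phospho antibody binding the phosphorylated ULight peptide. The ATP-started reaction ran 1 h at RT and was then quenched with 10 mM EDTA plus antibody for a further 1 h. Compounds were tested as 8-point, 3-fold dilutions.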

Data set [1] addresses Her2 Exon 20 INSYVMA Ba/F3 (Homo sapiens, UniProt P04626, DUP772-775, cells depend on it). Description: Her2 Exon 20 INSYVMA Ba/F3 CellTiter-Glo. The class given is cell-based. The note with it: CellTiter-Glo, 72 h, read-out: Her2 Exon 20 INSYVMA Ba/F3 CTG IC50. The method, boiled down: (§1)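 Ba/F3 cells dependent on the mutant kinase, seeded and grown 24 h, then treated with compound for 72 h at 37 °C, 5% CO2. Viability by CellTiter-Glo ATP luminescence versus DMSO and 10 μM staurosporine controls; IC50 from dose-response fit, plates accepted at Z′ ≥0.5; bins A ≤100 nM to E >10000 nM.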
For orientation: Cellular ATP, detected with luciferase, serves as a proxy for viable cell number.

Data set [2] deals with EGFR Exon 20 INSNPH Ba/F3 (Homo sapiens, UniProt P00533, DUP771-773, cells depend on it). The data set is described as follows: EGFR Exon 20 INSNPH Ba/F3 CellTiter-Glo. Type of data set: cell-based. Particulars: CellTiter-Glo, 72 h, read-out: EGFR Exon 20 INSNPH Ba/F3 CTG IC50. Summed up:
as §1

For another data set, the target named is EGFR T790ML858R (Homo sapiens, UniProt P00533, L858R/T790M). The data set is described as follows: EGFR T790ML858R Lance assay. Type of data set: biochemical. The procedure: (§2) Inhibition is indicated as […] [nM] (“−”=not measured). Compounds having an activity designated as “A” provided an IC50≤100 nM; compounds having an activity designated as “B” provided an 100 nM<IC50≤500 nM; compounds having an activity designated as “C” provided an 500 nM<IC50≤1000 nM; compounds having an activity designated as “D” provided an 1000 nM<IC50≤100000 nM; and compounds having an activity designated as “E” provided an IC50>10000 nM.

The next data set has as its target EGFR wt (Homo sapiens, UniProt P00533). Description: EGFR wt Lance assay. Type of data set: biochemical. How it is done:
as §2

The test system of the next data set is H1975. The data set is described as follows: H1975 CellTiter-Glo. The class given is cell-based. The note with it: Homo sapiens, NCI-H1975; 72 h compound incubation; read-out: H1975 CTG IC50. Summed up: (§3)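 ATP-based luminescent viability read after 72 h compound exposure (DMSO vehicle, range of concentrations), cells plated 24 h beforehand at 37° C, 5% CO2. IC50 by dose-response fitting; 10 μM Staurosporine and DMSO controls, Z′-factor ≥0.5 required.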

The test system of a further data set is A431. Description: A431 CellTiter-Glo. The class given is cell-based. Particulars: Homo sapiens, A-431; 72 h compound incubation; read-out: A431 CTG IC50. The method, boiled down: as §3
Data set [3] can be described thus: Metabolic stability in mouse liver microsomes without cofactor NADPH. Type of data set: in vitro ADME. Particulars: 3 μM test compound, mouse liver microsomes, without NADPH, 50 min, 37° C., LC-MS/MS. The method, boiled down:
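Cofactor-free incubation: no NADPH added to mouse liver microsomes, with compound at 3 μM and 37° C. Remaining parent was quantified by LC-MS/MS at time points up to 50 minutes to track depletion.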
(Liver microsomes are vesicles of endoplasmic reticulum, rich in cytochrome P450 enzymes.)

Chain of EGFR Exon 20 INSNPH Ba/F3 (P00533 with tags, fused parts or gaps DUP771-773): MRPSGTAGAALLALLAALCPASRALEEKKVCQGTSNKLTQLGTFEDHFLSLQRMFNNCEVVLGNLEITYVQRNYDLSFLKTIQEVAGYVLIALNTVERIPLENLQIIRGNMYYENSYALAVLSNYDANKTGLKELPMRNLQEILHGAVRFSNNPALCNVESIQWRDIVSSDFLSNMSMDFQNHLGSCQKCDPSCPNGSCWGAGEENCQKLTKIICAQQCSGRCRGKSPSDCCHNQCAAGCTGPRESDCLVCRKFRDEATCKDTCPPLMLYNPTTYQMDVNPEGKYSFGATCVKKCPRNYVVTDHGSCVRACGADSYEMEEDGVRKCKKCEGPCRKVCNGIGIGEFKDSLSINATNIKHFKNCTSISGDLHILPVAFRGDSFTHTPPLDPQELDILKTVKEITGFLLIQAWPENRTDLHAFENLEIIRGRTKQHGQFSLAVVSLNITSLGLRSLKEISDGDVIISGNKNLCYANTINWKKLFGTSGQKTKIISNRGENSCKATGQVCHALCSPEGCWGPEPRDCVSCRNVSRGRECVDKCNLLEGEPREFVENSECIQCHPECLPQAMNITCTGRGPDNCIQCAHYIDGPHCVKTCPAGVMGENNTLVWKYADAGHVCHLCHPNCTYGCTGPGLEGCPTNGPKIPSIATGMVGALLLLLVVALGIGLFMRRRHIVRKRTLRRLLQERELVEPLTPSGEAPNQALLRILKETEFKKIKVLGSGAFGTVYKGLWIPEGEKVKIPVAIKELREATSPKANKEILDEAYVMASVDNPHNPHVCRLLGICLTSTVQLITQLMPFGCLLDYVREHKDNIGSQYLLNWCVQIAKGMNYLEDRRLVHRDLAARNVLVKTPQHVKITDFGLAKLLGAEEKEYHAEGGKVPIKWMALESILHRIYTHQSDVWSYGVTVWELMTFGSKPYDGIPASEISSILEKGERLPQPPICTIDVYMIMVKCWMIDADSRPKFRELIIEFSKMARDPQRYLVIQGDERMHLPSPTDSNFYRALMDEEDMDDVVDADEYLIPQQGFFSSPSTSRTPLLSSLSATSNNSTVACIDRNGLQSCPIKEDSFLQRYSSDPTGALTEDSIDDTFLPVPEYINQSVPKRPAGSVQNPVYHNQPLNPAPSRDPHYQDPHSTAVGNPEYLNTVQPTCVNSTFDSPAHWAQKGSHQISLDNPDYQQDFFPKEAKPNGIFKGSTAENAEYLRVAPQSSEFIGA
Chain of EGFR wt (P00533 25-1210): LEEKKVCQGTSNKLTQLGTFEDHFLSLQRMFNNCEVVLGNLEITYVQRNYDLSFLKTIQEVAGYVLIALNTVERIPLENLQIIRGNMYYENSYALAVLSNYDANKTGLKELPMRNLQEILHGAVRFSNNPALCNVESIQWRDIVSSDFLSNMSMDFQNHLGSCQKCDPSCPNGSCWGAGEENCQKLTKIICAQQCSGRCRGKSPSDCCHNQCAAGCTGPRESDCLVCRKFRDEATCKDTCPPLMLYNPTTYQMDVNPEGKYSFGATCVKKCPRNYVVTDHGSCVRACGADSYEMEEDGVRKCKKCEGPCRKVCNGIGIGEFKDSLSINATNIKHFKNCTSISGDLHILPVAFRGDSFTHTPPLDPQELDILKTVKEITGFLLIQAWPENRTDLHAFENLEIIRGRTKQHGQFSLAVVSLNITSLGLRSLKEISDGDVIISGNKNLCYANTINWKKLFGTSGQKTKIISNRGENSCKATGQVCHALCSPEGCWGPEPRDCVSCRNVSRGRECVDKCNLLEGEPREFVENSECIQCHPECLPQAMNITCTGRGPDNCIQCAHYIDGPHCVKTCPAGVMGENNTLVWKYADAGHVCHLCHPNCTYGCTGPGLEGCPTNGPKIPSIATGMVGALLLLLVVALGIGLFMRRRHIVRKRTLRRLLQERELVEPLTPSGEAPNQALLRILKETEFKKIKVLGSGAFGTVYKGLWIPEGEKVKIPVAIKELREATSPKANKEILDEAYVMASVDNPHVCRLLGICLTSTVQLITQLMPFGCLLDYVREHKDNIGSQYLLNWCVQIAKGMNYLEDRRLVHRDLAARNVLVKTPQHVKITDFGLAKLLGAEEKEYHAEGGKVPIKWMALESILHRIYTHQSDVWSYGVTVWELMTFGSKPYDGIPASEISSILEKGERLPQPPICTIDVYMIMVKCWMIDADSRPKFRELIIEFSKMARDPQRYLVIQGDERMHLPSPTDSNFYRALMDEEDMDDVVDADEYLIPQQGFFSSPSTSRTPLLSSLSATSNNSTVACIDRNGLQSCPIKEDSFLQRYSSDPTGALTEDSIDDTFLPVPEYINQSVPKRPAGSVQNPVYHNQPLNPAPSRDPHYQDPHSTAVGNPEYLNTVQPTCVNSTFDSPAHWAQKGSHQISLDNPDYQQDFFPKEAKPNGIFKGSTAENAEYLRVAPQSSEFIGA
Chain of Her2 Exon 20 INSYVMA Ba/F3 (P04626 with tags, fused parts or gaps DUP772-775): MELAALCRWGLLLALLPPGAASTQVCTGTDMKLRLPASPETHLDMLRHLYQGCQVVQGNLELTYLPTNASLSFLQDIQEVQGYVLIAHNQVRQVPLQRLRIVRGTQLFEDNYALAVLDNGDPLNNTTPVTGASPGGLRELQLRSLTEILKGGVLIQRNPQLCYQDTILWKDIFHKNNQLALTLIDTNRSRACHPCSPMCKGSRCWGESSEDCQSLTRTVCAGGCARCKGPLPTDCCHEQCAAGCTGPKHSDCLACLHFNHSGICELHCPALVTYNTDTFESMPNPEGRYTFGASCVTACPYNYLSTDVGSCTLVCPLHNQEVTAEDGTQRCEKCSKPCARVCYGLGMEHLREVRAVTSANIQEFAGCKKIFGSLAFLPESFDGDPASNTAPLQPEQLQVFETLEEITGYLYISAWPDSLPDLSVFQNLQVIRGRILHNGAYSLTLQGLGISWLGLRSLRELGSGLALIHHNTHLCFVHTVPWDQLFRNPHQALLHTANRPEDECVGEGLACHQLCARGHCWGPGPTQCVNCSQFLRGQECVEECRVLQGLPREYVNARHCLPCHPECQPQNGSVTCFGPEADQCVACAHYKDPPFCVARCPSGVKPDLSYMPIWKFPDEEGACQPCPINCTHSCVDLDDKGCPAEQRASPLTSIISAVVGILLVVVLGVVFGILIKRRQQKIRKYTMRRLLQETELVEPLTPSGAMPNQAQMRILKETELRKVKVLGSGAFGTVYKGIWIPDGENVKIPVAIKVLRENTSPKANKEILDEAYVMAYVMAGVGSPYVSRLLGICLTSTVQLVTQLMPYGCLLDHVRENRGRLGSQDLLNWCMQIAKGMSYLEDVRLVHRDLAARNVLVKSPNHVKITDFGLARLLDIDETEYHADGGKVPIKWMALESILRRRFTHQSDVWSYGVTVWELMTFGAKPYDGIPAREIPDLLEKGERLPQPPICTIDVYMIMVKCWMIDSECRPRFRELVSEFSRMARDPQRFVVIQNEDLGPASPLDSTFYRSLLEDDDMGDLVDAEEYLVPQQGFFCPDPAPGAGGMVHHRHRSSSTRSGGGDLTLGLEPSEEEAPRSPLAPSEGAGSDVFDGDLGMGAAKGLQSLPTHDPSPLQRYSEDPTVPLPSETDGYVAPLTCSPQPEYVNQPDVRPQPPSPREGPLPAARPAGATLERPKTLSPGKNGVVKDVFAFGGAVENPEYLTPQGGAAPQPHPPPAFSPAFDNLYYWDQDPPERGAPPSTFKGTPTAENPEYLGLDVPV
Chain of EGFR T790ML858R (P00533 25-1210 T790M/L858R): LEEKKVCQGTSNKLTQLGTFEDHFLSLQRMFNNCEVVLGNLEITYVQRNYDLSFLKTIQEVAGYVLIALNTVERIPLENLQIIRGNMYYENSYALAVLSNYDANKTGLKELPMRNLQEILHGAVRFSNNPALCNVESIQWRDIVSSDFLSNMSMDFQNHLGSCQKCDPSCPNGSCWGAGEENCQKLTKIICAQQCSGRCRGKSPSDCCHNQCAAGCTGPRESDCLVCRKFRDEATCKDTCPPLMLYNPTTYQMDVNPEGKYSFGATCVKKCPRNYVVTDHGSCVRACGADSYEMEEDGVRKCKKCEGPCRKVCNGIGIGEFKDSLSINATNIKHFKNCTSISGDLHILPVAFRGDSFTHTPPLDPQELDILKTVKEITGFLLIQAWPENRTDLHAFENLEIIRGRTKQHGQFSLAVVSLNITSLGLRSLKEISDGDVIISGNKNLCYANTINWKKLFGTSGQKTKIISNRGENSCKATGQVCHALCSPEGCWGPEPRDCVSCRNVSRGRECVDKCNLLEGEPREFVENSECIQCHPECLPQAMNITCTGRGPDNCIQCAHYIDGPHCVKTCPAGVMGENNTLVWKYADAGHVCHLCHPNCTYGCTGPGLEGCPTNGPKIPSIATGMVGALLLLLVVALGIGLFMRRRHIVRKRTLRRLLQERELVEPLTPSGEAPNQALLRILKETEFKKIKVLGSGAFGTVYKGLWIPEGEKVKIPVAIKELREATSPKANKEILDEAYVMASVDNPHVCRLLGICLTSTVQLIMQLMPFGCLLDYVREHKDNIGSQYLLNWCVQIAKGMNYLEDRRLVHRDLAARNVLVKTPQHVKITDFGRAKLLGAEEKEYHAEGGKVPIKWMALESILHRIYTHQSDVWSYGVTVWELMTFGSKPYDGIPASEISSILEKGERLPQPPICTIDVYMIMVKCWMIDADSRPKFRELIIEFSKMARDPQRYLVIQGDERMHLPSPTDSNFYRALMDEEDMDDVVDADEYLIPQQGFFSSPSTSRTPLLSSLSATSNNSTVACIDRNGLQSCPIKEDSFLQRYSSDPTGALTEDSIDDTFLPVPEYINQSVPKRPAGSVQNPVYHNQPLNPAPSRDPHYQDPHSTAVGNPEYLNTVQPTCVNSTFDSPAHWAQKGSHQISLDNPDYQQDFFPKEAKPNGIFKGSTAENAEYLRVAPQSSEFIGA

Consider `C=CC(=O)N1CCc2ccc(-c3c(-c4ccc(CN5CCOCC5)cc4)[nH]c4nccc(Cl)c34)cc21` [Example 68, 1-(6-(4-chloro-2-(4-(morpholinomethyl)phenyl)-1H-pyrrolo[2,3-b]pyridin-3-yl)indolin-1-yl)prop-2-en-1-one], for which the IC50 was at most 100 nM on HER2 INS YVMA; at most 100 nM against EGFR T790ML858R; at most 100 nM on EGFR wt; 100 to 500 nM with H1975; 1000 to 100000 nM in the data set with A431. Besides, the GI50 in data set [1] lay in the range of 500 to 1000 nM; in data set [2], 1000 to 10000 nM. For the same molecule, in data set [3], the “Stability in presence of mouse liver microsomes without cofactor NADPH [% remaining after 50 min]” value is above 99 % remaining after 50 min.

Regarding `C=CC(=O)Nc1cc(-c2c(-c3ccc(N4CCN(C(C)=O)CC4)cc3)[nH]c3nccc(OC)c23)ccc1C` [Example 74, N-(5-(2-(4-(4-acetylpiperazin-1-yl)phenyl)-4-methoxy-1H-pyrrolo[2,3-b]pyridin-3-yl)-2-methylphenyl)acrylamide], the IC50 on HER2 INS YVMA was at most 100 nM; against EGFR T790ML858R it was at most 100 nM; at EGFR wt, at most 100 nM; in the data set with H1975, at most 100 nM; with A431, 500 to 1000 nM. Besides, the GI50 in data set [1] was in the range of 500 to 1000 nM; in data set [2], 100 to 500 nM. Also, the “Stability in presence of mouse liver microsomes without cofactor NADPH [% remaining after 50 min]” value in data set [3] was found to be 90 % remaining after 50 min.

`C=CC(=O)N1CCc2ccc(-c3c(-c4ccc(N5CCN(C)CC5)cc4)[nH]c4nccc(OCC)c34)cc21` [Example 104, 1-(6-(4-ethoxy-2-(4-(4-methylpiperazin-1-yl)phenyl)-1H-pyrrolo[2,3-b]pyridin-3-yl)indolin-1-yl)prop-2-en-1-one 2,2,2-trifluoroacetate]: the IC50 at HER2 INS YVMA was at most 100 nM; at EGFR T790ML858R, at most 100 nM; at EGFR wt, at most 100 nM; in the data set with H1975, at most 100 nM; with A431, 500 to 1000 nM. The GI50 in data set [1] and in data set [2] was 100 to 500 nM throughout. For the same molecule, in data set [3], the “Stability in presence of mouse liver microsomes without cofactor NADPH [% remaining after 50 min]” value was 89 % remaining after 50 min.

For the molecule `C=CC(=O)Nc1cc(-c2c(-c3ccc(N4CCN(C)CC4)cc3)[nH]c3ncc(C(=O)OCC)cc23)ccc1C` [Example 135, ethyl 3-(3-acrylamido-4-methylphenyl)-2-(4-(4-methylpiperazin-1-yl)phenyl)-1H-pyrrolo[2,3-b]pyridine-5-carboxylate], the IC50 at HER2 INS YVMA is at most 100 nM; at EGFR T790ML858R, at most 100 nM; on EGFR wt, at most 100 nM; in the data set with H1975, at most 100 nM; in the data set on A431, 1000 to 100000 nM. Moreover, the GI50 in data set [1] and in data set [2] was 100 to 500 nM throughout. In addition, in data set [3], the “Stability in presence of mouse liver microsomes without cofactor NADPH [% remaining after 50 min]” value was 95 % remaining after 50 min.

For the molecule `C=CC(=O)N1CCc2ccc(-c3c(-c4ccc(OCCN5CCCC5)cc4)[nH]c4nccc(OC)c34)cc21` [Example 112, 1-(6-(4-methoxy-2-(4-(2-(pyrrolidin-1-yl)ethoxy)phenyl)-1H-pyrrolo[2,3-b]pyridin-3-yl)indolin-1-yl)prop-2-en-1-one], the IC50 was at most 100 nM on HER2 INS YVMA; at most 100 nM on EGFR T790ML858R; at most 100 nM on EGFR wt; 100 to 500 nM in the data set on H1975; 1000 to 100000 nM in the data set with A431. Also, the GI50 in data set [1] and in data set [2] was 500 to 1000 nM throughout. Also, the “Stability in presence of mouse liver microsomes without cofactor NADPH [% remaining after 50 min]” value in data set [3] was 79 % remaining after 50 min.

For `C=CC(=O)N1CCOc2ccc(-c3c(-c4ccc(CN5CCN(C)CC5)cc4)[nH]c4nccc(Cl)c34)cc21` [Example 100, 1-(6-(4-chloro-2-(4-((4-methylpiperazin-1-yl)methyl)phenyl)-1H-pyrrolo[2,3-b]pyridin-3-yl)-2H-benzo[b][1,4]oxazin-4(3H)-yl)prop-2-en-1-one], the IC50 against HER2 INS YVMA is at most 100 nM; against EGFR T790ML858R, at most 100 nM; against EGFR wt, at most 100 nM; with H1975 it was 100 to 500 nM; with A431, 1000 to 100000 nM. For the same molecule, the GI50 in data set [1] fell in the range of 100 to 500 nM; in data set [2], 500 to 1000 nM. For the same molecule, the “Stability in presence of mouse liver microsomes without cofactor NADPH [% remaining after 50 min]” value in data set [3] is above 99 % remaining after 50 min.

On to `C=CC(=O)Nc1cc(-c2c(-c3ccc(C4CCN(C)CC4)cc3)[nH]c3ncc(C(=O)OC(C)C)cc23)cc(F)c1C` [Example 179, isopropyl 3-(3-acrylamido-5-fluoro-4-methylphenyl)-2-(4-(1-methylpiperidin-4-yl)phenyl)-1H-pyrrolo[2,3-b]pyridine-5-carboxylate], for which the IC50 against HER2 INS YVMA is at most 100 nM; on EGFR T790ML858R, at most 100 nM; against EGFR wt, at most 100 nM; in the data set on H1975, 100 to 500 nM; in the data set on A431, 1000 to 100000 nM. The GI50 in data set [1] and in data set [2] was 100 to 500 nM throughout. Further, the “Stability in presence of mouse liver microsomes without cofactor NADPH [% remaining after 50 min]” value in data set [3] was above 99 % remaining after 50 min.

Consider `C=CC(=O)Nc1cc(-c2c(-c3cccc(OCCN4CCCC4)c3)[nH]c3nccc(Cl)c23)ccc1C` [Example 37, N-(5-(4-chloro-2-(3-(2-(pyrrolidin-1-yl)ethoxy)phenyl)-1H-pyrrolo[2,3-b]pyridin-3-yl)-2-methylphenyl)acrylamide], for which the half-maximal inhibitory concentration (IC50) against HER2 INS YVMA is at most 100 nM; against EGFR T790ML858R it was at most 100 nM; against EGFR wt, at most 100 nM; in the data set with H1975, at most 100 nM; in the data set on A431, 100 to 500 nM. In addition, the GI50 in data set [1] and in data set [2] was 100 to 500 nM each time. Besides, in data set [3], the “Stability in presence of mouse liver microsomes without cofactor NADPH [% remaining after 50 min]” value is given as above 99 % remaining after 50 min.

As for `C=CC(=O)Nc1cc(-c2c(-c3ccc(N4CCN(C)CC4)cc3)[nH]c3ncc(Cl)c(C)c23)ccc1C` [Example 155], the IC50 is at most 100 nM against HER2 INS YVMA; at most 100 nM against EGFR T790ML858R; at most 100 nM on EGFR wt; at most 100 nM with H1975; 1000 to 100000 nM in the data set with A431. Further, the GI50 in data set [1] was 500 to 1000 nM; in data set [2], 100 to 500 nM. Moreover, in data set [3], the “Stability in presence of mouse liver microsomes without cofactor NADPH [% remaining after 50 min]” value is on record as above 99 % remaining after 50 min.

On to `C=CC(=O)N1CCc2ccc(-c3c(-c4cccc(OCCN5CCCC5)c4)[nH]c4nccc(OCC)c34)cc21` [Example 109, 1-(6-(4-ethoxy-2-(3-(2-(pyrrolidin-1-yl)ethoxy)phenyl)-1H-pyrrolo[2,3-b]pyridin-3-yl)indolin-1-yl)prop-2-en-1-one], for which the concentration for half-maximal inhibition (IC50) at HER2 INS YVMA was at most 100 nM; against EGFR T790ML858R, at most 100 nM; on EGFR wt, at most 100 nM; with H1975, at most 100 nM; in the data set on A431, 500 to 1000 nM. Further, the GI50 in data set [1] and in data set [2] was 100 to 500 nM in each case. In data set [3], the “Stability in presence of mouse liver microsomes without cofactor NADPH [% remaining after 50 min]” value was determined as 77 % remaining after 50 min.

Regarding `C=CC(=O)N1CCOc2ccc(-c3c(-c4ccc(N5CCN(CC)CC5)cc4)[nH]c4nccc(Cl)c34)cc21` [Example 99, 1-(6-(4-chloro-2-(4-(4-ethylpiperazin-1-yl)phenyl)-1H-pyrrolo[2,3-b]pyridin-3-yl)-2H-benzo[b][1,4]oxazin-4(3H)-yl)prop-2-en-1-one], the IC50 is at most 100 nM at HER2 INS YVMA; at most 100 nM against EGFR T790ML858R; at most 100 nM on EGFR wt; 100 to 500 nM in the data set with H1975; 1000 to 100000 nM in the data set with A431. Also, the GI50 in data set [1] and in data set [2] was 100 to 500 nM each time. Further, the “Stability in presence of mouse liver microsomes without cofactor NADPH [% remaining after 50 min]” value in data set [3] is above 99 % remaining after 50 min.

What is called IC50 is the point on the concentration scale where inhibition reaches its midpoint.
